One test addresses T1, hDAT (Homo sapiens, UniProt Q01959).
T1 construct: expressed in transfected cells
Kind of test: Monoamine uptake assay (fluorescent substrate), hDAT. Type of test: cell-based. How it is done: (§1) Human embryonic kidney (HEK) 293 cells stably expressing human DAT, NET, or SERT (kindly provided by Dr. Hoener from F. Hoffmann-La Roche Ltd., Basel, Switzerland) were cultured as described in [Zwartsen et al. (2017)].
(§2) Uptake activity of hNET, hDAT, and hSERT was measured using the Neurotransmitter Transporter Uptake Assay Kit from MDS Analytical Technologies (Sunnyvale, CA, United States) as described in detail previously ([Zwartsen et al., 2017]). The kit contained a mixture consisting of a fluorescent substrate, which resembles the biogenic amine neurotransmitters, and a masking dye that extinguishes extracellular fluorescence. Uptake of the fluorescent substrate, a measure of neurotransmitter transporter function, increases intracellular fluorescence, while extracellular fluorescence is blocked by the masking dye ([Jorgensen et al., 2008]). The mixture was dissolved in Hank’s Balanced Salt Solution (1×) (HBSS) with 20 mM HEPES, and kept up to 1 week at −20°C.
On day 0, HEK 293 cells were seeded (60,000 cells/well) in clear-bottom black-walled 96-well plates coated with poly-L-lysine (PLL, 50 mg/L). On day 1, cells were pre-incubated with the fluorescent substrate mixture (95 μL/well, comprising of the fluorescent substrate and the extracellular masking dye, dissolved in HBSS) for 12 min (t = −12 to t = 0). During incubation, intracellular fluorescence was measured every 3 min. […] Stock solutions and dilutions were freshly prepared in HBSS (1×) at the day of usage. Effects of 3-MMC, 4-MMC, 4-MEC, methylone, pentedrone, MDPV, 3-MMCinternet, and 4-MECinternet were measured at final concentrations of 0.03–300/1000 μM. Fluorescence was measured with a microplate reader (Tecan Infinite M200 microplate; Tecan Trading Männedorf, Switzerland) at 37°C at 430/515 nm excitation/emission wavelength. For more experimental detail see [Zwartsen et al. (2017)].
Data from the monoamine uptake assay were analyzed as described by [Zwartsen et al. (2017)], with minor modifications. Data for α-PVP were reanalyzed from [Zwartsen et al. (2017)]. In short, the fluorescence of each well was background corrected and uptake was determined per well by calculating the change in fluorescence (ΔFU) at 12 min after drug exposure (t = 12) compared to the fluorescence at the start of exposure (t = 0), as a percentage of the fluorescence at the start of exposure (%ΔFU = ((FUt = 12−FUt = 0)/FUt = 0)∗100%; see [Zwartsen et al., 2017]). Plate-matched control values for each compound (e.g., methylone) above or below two times the standard deviation of the average normalized control value were considered outliers and were removed from analysis (4.8%). Thereafter, uptake in drug-exposed wells was expressed as a percentage of control wells on the same plate and all uptake values were scaled between 0 and 100%. Outliers (>mean ± 2×SD) in exposed groups were removed (2.7%) and uptake (% compared to control) was expressed as mean ± SEM of nwells from Nplates.
Concentration–response curves were made for transporter, MEA, and cell viability assays. To calculate IC50 values, a four-parameter logistic curve with a variable slope was used (Y = Bottom + (Top−Bottom)/(1 + 10∧((LogIC50 − X) ^∗ HillSlo pe))) (GraphPad Prism, version 7.04). When applicable, significance between concentrations and controls (for MEA) and different IC50 values [between different transporters (DAT/NET/SERT), MEA parameters (MSR/MBR/MNBR), exposure settings (acute/prolonged/recovery), and drug grade (pharmaceutical/internet)] were determined using unpaired t-tests (two values) or one-way ANOVA’s followed by a post hoc Dunnet’s test (>2 values). All statistical tests were performed using GraphPad Prism. For recovery of neuronal activity, IC50 values and 95% confidence intervals could not always be determined and are reported as higher than the highest concentration tested (e.g., >1000 μM). […]

The target in the next test is T2, hSERT (Homo sapiens, UniProt P31645).
T2 construct: expressed in transfected cells
The test can be described thus: Monoamine uptake assay (fluorescent substrate), hSERT. Type of test: cell-based. How it is done:
as §1
as §2, with “The mixture was dissolved in Hank’s Balanced Salt Solution (1×) (HBSS) with 20 mM HEPES, and kept up to 1 week at −20°C.” left out
(§3) On day 0, HEK 293 cells were seeded (60,000 cells/well) in clear-bottom black-walled 96-well plates coated with poly-L-lysine (PLL, 50 mg/L). […] During incubation, intracellular fluorescence was measured every 3 min. […] Effects of 3-MMC, 4-MMC, 4-MEC, methylone, pentedrone, MDPV, 3-MMCinternet, and 4-MECinternet were measured at final concentrations of 0.03–300/1000 μM. Fluorescence was measured with a microplate reader (Tecan Infinite M200 microplate; Tecan Trading Männedorf, Switzerland) at 37°C at 430/515 nm excitation/emission wavelength. […]

In another test the target is T3, hNET (Homo sapiens, UniProt P23975).
T3 construct: expressed in transfected cells
The test can be described thus: Monoamine uptake assay (fluorescent substrate), hNET. Type of test: cell-based. How it is done:
as §1
as §2, with “The mixture was dissolved in Hank’s Balanced Salt Solution (1×) (HBSS) with 20 mM HEPES, and kept up to 1 week at −20°C.” left out
as §3

The subject of test [1] is rat primary cortical cultures. Also on record: method as in Zwartsen et al., 2019. As to conditions: value [CI], published previously ref Zwartsen et al., 2019, cited from earlier work.

Read-outs that look alike come from different tables or passages of the source.

As a reminder, the IC50 is the point on the concentration scale where inhibition reaches its midpoint.

T1 sequence (Q01959 whole entry): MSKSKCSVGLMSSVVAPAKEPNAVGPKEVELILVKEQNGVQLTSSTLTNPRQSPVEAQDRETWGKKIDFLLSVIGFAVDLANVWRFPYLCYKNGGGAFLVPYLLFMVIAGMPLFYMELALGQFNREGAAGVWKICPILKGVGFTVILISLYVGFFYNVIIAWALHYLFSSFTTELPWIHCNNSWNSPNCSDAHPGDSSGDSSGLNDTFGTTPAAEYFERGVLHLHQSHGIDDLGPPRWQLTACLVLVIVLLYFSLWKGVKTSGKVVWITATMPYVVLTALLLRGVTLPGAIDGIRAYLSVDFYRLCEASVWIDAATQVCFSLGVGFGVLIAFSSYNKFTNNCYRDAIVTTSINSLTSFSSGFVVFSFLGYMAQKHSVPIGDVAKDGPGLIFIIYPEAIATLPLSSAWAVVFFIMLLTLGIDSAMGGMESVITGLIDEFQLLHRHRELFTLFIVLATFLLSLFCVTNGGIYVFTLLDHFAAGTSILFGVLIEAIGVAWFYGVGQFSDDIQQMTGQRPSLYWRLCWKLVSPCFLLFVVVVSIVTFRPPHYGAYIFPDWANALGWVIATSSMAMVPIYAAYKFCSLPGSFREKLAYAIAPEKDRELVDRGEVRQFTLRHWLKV
T2 sequence (P31645 whole entry): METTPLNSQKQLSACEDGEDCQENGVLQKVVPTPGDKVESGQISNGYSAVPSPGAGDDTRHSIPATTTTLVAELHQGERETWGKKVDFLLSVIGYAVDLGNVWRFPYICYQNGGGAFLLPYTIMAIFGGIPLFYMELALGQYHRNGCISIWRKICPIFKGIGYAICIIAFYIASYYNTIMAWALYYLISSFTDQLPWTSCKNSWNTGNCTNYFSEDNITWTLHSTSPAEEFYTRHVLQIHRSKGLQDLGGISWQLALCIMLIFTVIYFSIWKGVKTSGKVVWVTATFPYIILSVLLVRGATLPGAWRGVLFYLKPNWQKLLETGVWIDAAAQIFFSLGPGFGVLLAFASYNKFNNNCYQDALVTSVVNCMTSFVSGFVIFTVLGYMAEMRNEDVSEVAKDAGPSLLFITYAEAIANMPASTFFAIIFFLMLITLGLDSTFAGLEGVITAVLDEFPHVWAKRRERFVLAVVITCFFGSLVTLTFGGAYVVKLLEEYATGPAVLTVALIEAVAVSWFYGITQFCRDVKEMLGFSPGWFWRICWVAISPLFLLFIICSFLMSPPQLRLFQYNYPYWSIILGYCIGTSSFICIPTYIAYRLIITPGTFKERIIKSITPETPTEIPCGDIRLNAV
T3 sequence (P23975 whole entry): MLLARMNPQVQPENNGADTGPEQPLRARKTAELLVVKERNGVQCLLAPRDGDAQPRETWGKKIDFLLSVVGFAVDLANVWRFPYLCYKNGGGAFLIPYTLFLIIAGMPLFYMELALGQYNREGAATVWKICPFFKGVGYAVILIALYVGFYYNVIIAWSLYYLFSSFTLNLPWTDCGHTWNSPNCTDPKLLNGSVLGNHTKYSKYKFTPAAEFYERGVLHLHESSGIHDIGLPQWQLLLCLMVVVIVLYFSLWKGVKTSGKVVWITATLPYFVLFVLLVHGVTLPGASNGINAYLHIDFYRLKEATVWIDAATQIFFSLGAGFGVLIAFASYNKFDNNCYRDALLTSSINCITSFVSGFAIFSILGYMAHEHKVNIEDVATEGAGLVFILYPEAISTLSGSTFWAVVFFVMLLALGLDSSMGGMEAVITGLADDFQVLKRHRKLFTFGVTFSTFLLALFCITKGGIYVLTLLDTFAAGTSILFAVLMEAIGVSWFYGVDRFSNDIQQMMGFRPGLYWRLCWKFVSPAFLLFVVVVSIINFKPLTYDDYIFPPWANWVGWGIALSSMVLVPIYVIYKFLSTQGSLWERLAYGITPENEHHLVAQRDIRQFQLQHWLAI

As to `CNC(C)C(=O)c1cccc(C)c1` (stereo not drawn) [3-MMC, 2-(methylamino)-1-(3-methylphenyl) propan-1-one], on hDAT, the IC50 amounted to 2.5 µM.
For `CCNC(C)C(=O)c1ccc(C)cc1` (stereo not drawn) [4-MEC, 2-(ethylamino)-1-(4-methylphenyl) propan-1-one], the half-maximal inhibitory concentration (IC50) against hDAT was determined as 1.6 µM.
Same read-out and setting: under `CNC(C)C(=O)c1ccc(C)cc1` (stereo not drawn) [4-MMC, 2-(methylamino)-1-(4-methylphenyl) propan-1-one] stands 1.4 µM.
Turning to `CCCC(C(=O)c1ccc2c(c1)OCO2)N1CCCC1` (stereo not drawn) [MDPV, 1-(1,3-benzodioxol-5-yl)-2-pyrro lidin-1-ylpentan-1-one], the IC50 is 4.5 µM against hSERT; 0.03 µM against hNET; 0.07 µM on hDAT; 40 µM in test [1] (acute exposure 30 min, read-out: Neuronal activity IC50, mean burst rate (MBR), acute); 35 µM in test [1] (acute exposure 30 min, read-out: Neuronal activity IC50, mean network burst rate (MNBR), acute); 30 µM in test [1] (acute exposure 30 min, read-out: Neuronal activity IC50, mean spike rate (MSR), acute). In test [1] (prolonged exposure 4.5 h, read-out: Neuronal activity IC50, mean burst rate (MBR), prolonged), the concentration for half-maximal inhibition (IC50) is 61 µM.
In the case of `CCCC(NC)C(=O)c1ccccc1` (stereo not drawn) [Pentedrone, 2-(methylamino)-1-phenyl pentan-1-one], the values for the concentration for half-maximal inhibition (IC50) against hSERT and against hDAT were 16 µM and 0.4 µM, respectively.

(Values after paper PMC7000521, “Hazard Characterization of Synthetic Cathinones Using Viability, Monoamine Reuptake, and Neuronal Activity Assays” (Frontiers in Neuroscience, 2020).)
